# Results from patent US4990617A, “N-oxide prodrug derivatives of 3-hydroxy morphinans and partial morphinans and derivatives” (E. I. Du Pont de Nemours and Company, priority 1989, dated 1991).
# Counter-ions that a name gives are not always drawn. Like-named read-outs stand apart in the source and are kept apart here.
# Experiments:
# [1] = Plasma naloxone concentration after oral dosing in dogs; type: in vivo; details: dog; for concentration at 0.5 h / concentration at 1 h / concentration at 2 h / concentration at 3 h / concentration at 4 h / concentration at 6 h / concentration at 8 h: in vivo, equimolar oral doses, read-out: Average Plasma Naloxone Conc.
# Experimental: (§1) Among the experiments used to evaluate the N-oxide prodrugs of the instant invention were measurements of their reduction rates in vitro by various biological media from rats, dogs, and humans, and drug bioavailability in rats and dogs administered oral doses of the prodrug. Drug concentration was determined after solvent extraction, using high pressure liquid chromatography analytical procedures.
# (§2) Rats and dogs were administered the parent drug intravenously and orally, and the prodrugs were administered orally. Usually, doses were administered as aqueous solutions prepared immediately before dosing. Plasma was collected and frozen until analysis of drug concentration. The area under the plasma drug concentration versus time curve (AUC) was calculated for each animal. […]. Relative bioavailability (RB) of parent drug was determined by comparing the bioavailability from orally administered prodrug F(pro) with the bioavailability from orally administered parent drug F(drug). [formula]
# [2] = literature, cited from earlier work; for therapeutic index: relative to corresponding tertiary amines
# [3] = literature, cited from earlier work
# [4] = rabbits administered oxycodone subcutaneously; literature; cited from earlier work
# [5] = In vitro reduction of N-oxide to drug in dog plasma; type: in vitro ADME; details: 37° C., read-out: t1/2 of conversion of nalbuphine N-oxide to nalbuphine (converted)
# Experimental: as §1
# (§3) Prodrug was added to fresh biological medium to a concentration of 0.28 μM, incubated at 37° C., and the rate of drug appearance was measured.
# [6] = In vitro reduction of N-oxide to drug in rat liver homogenate; type: in vitro ADME; details: in 3 minutes, rat liver homogenate (25%), 37° C., read-out: Conversion of nalbuphine N-oxide to nalbuphine
# Experimental: as §1, §3
# [7] = In vitro reduction of N-oxide to drug in human plasma; type: in vitro ADME; details: 37° C., 0.28 μM
# Experimental: as §1, §3
# [8] = In vitro reduction of N-oxide to drug in rat plasma; type: in vitro ADME; details: 37° C., read-out: t1/2 of conversion of nalbuphine N-oxide to nalbuphine (converted)
# Experimental: as §1, §3
# [9] = In vitro reduction of N-oxide to drug in rat intestine homogenate; type: in vitro ADME; details: in 10 minutes, rat intestine homogenate (25%), 37° C., read-out: Conversion of nalbuphine N-oxide to nalbuphine
# Experimental: as §1, §3
# [10] = administered to rats; literature; cited from earlier work
# [11] = literature; cited from earlier work
# [12] = Plasma naltrexone concentration after oral dosing in dogs; type: in vivo; details: dog, normalized for dose
# Experimental: as §1, §2
# [13] = literature, cited from earlier work; remark: listed apart in the source
# [14] = administered to rabbits; literature; cited from earlier work
# [15] = administered to mice; literature; cited from earlier work
# [16] = background, cited from earlier work
# [17] = guinea pig liver microsomal preparation; literature; cited from earlier work
# [18] = Oral bioavailability in rats; type: in vivo; details: plasma; rat, oral nalbuphine; read-out: F(DRUG), nalbuphine bioavailability from orally administered parent drug
# Experimental: as §1
# (§4) Rats and dogs were administered the parent drug intravenously and orally, and the prodrugs were administered orally. Usually, doses were administered as aqueous solutions prepared immediately before dosing. Plasma was collected and frozen until analysis of drug concentration. The area under the plasma drug concentration versus time curve (AUC) was calculated for each animal. Bioavailability (F) was estimated by: [formula] F represents the percentage of the administered dose absorbed into plasma. Relative bioavailability (RB) of parent drug was determined by comparing the bioavailability from orally administered prodrug F(pro) with the bioavailability from orally administered parent drug F(drug). [formula]
# [19] = Oral bioavailability in dogs; type: in vivo; details: plasma, dog, read-out: oral bioavailability of nalbuphine
# Experimental: as §1, §4
molecule,measurement,setting,value
"C=CC[N+]1([O-])CC[C@]23c4c5ccc(O)c4O[C@H]2C(=O)CC[C@@]3(O)[C@H]1C5 (stereo partly drawn) [Naloxone N-oxide, naloxone N-oxide]","Oral naloxone bioavailability when administered as the N-oxide, relative to naloxone",[1]; oral,improved
same,concentration at 0.5 h,[1],947 ng/mL
same,concentration at 1 h,[1],1220 ng/mL
same,concentration at 2 h,[1],797 ng/mL
same,concentration at 3 h,[1],289 ng/mL
same,concentration at 4 h,[1],107 ng/mL
same,concentration at 6 h,[1],22 ng/mL
same,concentration at 8 h,[1],6 ng/mL
C[N+]1([O-])CC[C@]23CCCC[C@H]2[C@H]1Cc1ccc(O)cc13 (stereo partly drawn) [3-hydroxy-N-methylmorphinan N-oxide],therapeutic index,[2],higher therapeutic index than the corresponding tertiary amines
"C=CCN1CC[C@]23c4c5ccc(O)c4O[C@H]2C(=O)CC[C@@]3(O)[C@H]1C5 [Naloxone, (-)-17-Allyl-4,5α-epoxy-3,14-dihydroxymorphinan-6-one]",concentration at 0.5 h,[1],451 ng/mL
same,concentration at 1 h,[1],176 ng/mL
same,concentration at 2 h,[1],65 ng/mL
same,concentration at 3 h,[1],30 ng/mL
same,concentration at 4 h,[1],10 ng/mL
same,concentration at 6 h,[1],10 ng/mL
same,concentration at 8 h,[1],5 ng/mL
CCC(=O)OC1(c2ccccc2)CC[N+](C)([O-])CC1 (stereo not drawn) [N-oxide of 1-methyl-4-phenyl-4-propionoxypiperidine HCl],toxicity,[2],Toxicity was also less
same,duration of analgesic activity,[3]; relative to dolantin HCl,of longer duration
same,analgesic activity,[3],analgesic activity equal to that of dolantin HCl
COc1ccc2c3c1O[C@H]1C(=O)CC[C@@]4(O)[C@@H](C2)[N+](C)([O-])CC[C@]314 (stereo partly drawn) [oxycodone N-oxide],form of metabolite in urine,[4],"found only in the free, unconjugated form"
[O-][N+]1(CC2CCC2)CC[C@]23c4c5ccc(O)c4O[C@H]2[C@@H](O)CC[C@@]3(O)[C@H]1C5 (stereo partly drawn) [Nalbuphine N-oxide],half-life at 0.28 µM,[5],53.7 h
same,"metabolised at 0.05 h, 0.28 µM",[6],100%
same,Rate of conversion of nalbuphine N-oxide to nalbuphine,[7],negligible
same,half-life at 0.28 µM,[8],6 h
same,"metabolised at 10 min, 0.28 µM",[9],100%
C[N+]1([O-])CC[C@]23c4c5ccc(O)c4O[C@H]2[C@@H](O)C=C[C@H]3[C@H]1C5 (stereo partly drawn) [Morphine N-oxide],reduction of N-oxide to tertiary amine,[10],partially reduced to morphine
same,antitussive activity,[11],effective antitussive
same,toxicity,[2],somewhat lower toxicity than morphine
same,analgesic activity,[3],either less active or inactive as an analgesic
O=C1CC[C@@]2(O)[C@H]3Cc4ccc(O)c5c4[C@@]2(CC[N+]3([O-])CC2CC2)[C@H]1O5 (stereo partly drawn) [Naltrexone N-oxide],Average Plasma Naltrexone Conc.,[12]; 0.25 hours,424 ng/mL
same,Average Plasma Naltrexone Conc.,[12]; 0.5 hours,752 ng/mL
same,Average Plasma Naltrexone Conc.,[12]; 1 hour,713 ng/mL
same,Average Plasma Naltrexone Conc.,[12]; 1.5 hours,559 ng/mL
same,Average Plasma Naltrexone Conc.,[12]; 2 hours,484 ng/mL
same,Average Plasma Naltrexone Conc.,[12]; 3 hours,251 ng/mL
same,Average Plasma Naltrexone Conc.,[12]; 4 hours,110 ng/mL
same,Average Plasma Naltrexone Conc.,[12]; 6 hours,24 ng/mL
same,Average Plasma Naltrexone Conc.,[12]; 8 hours,8 ng/mL
C[N+]1([O-])CCC[C@H]1c1cccnc1 (stereo partly drawn) [nicotine-1'-N-oxide],reduction to nicotine,"[13]; man, oral versus intravenous","partially reduced to nicotine in man after oral administration, but not after intravenous administration"
same,first-pass phenomenon,[13]; oral,substantially avoids the first-pass phenomenon seen with oral nicotine
CCC(=O)OC1(c2ccccc2)CC[N+](C)([O-])CC1 (stereo not drawn) [N-oxide of 1-methyl-4-phenyl-4-piperidinol propionate],reduction of N-oxide to tertiary amine,[10],partially reduced to the tertiary amine
same,reduction of N-oxide to tertiary amine,[14],partially reduced to the tertiary amine
same,reduction of N-oxide to tertiary amine,[15],partially reduced to the tertiary amine
3-methyl-morphine [Codeine],metabolism to N-oxide,[10],partially metabolized to the N-oxides
same,oral:parenteral potency ratio,[16]; relative to morphine,much higher oral:parenteral potency ratio than morphine
same,conversion to N-oxide,[17],converted in part to the corresponding N-oxides
COc1ccc2c3c1O[C@H]1C(=O)CC[C@@]4(O)[C@@H](C2)N(C)CC[C@]314 [Oxycodone],oral potency,[16],similarly good oral potency
COc1ccc2c(c1)[C@@]13CCCC[C@H]1[C@@H](C2)[N+](C)([O-])CC3 (stereo partly drawn) [3-methoxy-N-methylmorphinan N-oxide],therapeutic index,[2],higher therapeutic index than the corresponding tertiary amines
CC[N+]([O-])(CC)CC(=O)N1CCN2C(=O)c3ccccc3C12c1ccccc1 (stereo not drawn),pharmacological properties,"[3]; Swiss Patent No. 481,124","analgesic, sedative, antitussive, hypotensive, and spasmolytic properties"
"O=C1CC[C@@]2(O)[C@H]3Cc4ccc(O)c5c4[C@@]2(CCN3CC2CC2)[C@H]1O5 [Naltrexone, (-)-17-(Cyclopropylmethyl)-4,5α-epoxy-3,14-dihydroxymorphinan-6-one]",Average Plasma Naltrexone Conc.,[12]; 0.25 hours,9 ng/mL
same,Average Plasma Naltrexone Conc.,[12]; 0.5 hours,9 ng/mL
same,Average Plasma Naltrexone Conc.,[12]; 1 hour,4 ng/mL
same,Average Plasma Naltrexone Conc.,[12]; 1.5 hours,4 ng/mL
same,Average Plasma Naltrexone Conc.,[12]; 2 hours,0 ng/mL
same,Average Plasma Naltrexone Conc.,[12]; 3 hours,0 ng/mL
same,Average Plasma Naltrexone Conc.,[12]; 4 hours,0 ng/mL
same,Average Plasma Naltrexone Conc.,[12]; 6 hours,0 ng/mL
same,Average Plasma Naltrexone Conc.,[12]; 8 hours,0 ng/mL
"Oc1ccc2c3c1O[C@H]1[C@@H](O)CC[C@@]4(O)[C@@H](C2)N(CC2CCC2)CC[C@]314 [Nalbuphine, (-)-17-(Cyclobutylmethyl)-4,5α-epoxymorphinan-3,6α,14-triol]",bioavailability,[18],2.7 ± 0.4%
same,bioavailability,[19],5.4%
